Legend:
Format in all cases: in vivo
[1] = tested on: Alopecurus myosuroides (ALOMY); experiment: Pre-emergence biological efficacy, glasshouse pot test; details: 312 h
Procedure, shortened: (§1)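 Test compound, formulated in acetone/water (50:50) containing 0.5% Tween 20 and diluted into an aqueous spray, was applied at 1000 or 250 g/ha to pots sown one day earlier. Injury was rated after 13 days, 100 meaning total damage.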

[2] = tested on: Amaranthus retoflexus (AMARE); experiment: as above; details: Amaranthus retroflexus, 312 h
Procedure, shortened: as §1

[3] = tested on: Echinochloa crus-galli (ECHCG); experiment: as above; details: 312 h
Procedure, shortened: as §1

[4] = tested on: Ipomea hederaceae (IPOHE); experiment: as above; details: Ipomoea hederacea, 312 h
Procedure, shortened: as §1

[5] = tested on: Setaria faberi (SETFA); experiment: as above; details: 312 h
Procedure, shortened: as §1

[6] = tested on: Solanum nigrum (SOLNI); experiment: as above; details: 312 h
Procedure, shortened: as §1

[7] = tested on: Alopecurus myosuroides (ALOMY); experiment: Post-emergence biological efficacy, glasshouse pot test; details: 312 h
Procedure, shortened: (§2)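 Plants were sown in standard soil and grown 8 days in a glasshouse (24/16° C. day/night, 14 hours light, 65% humidity), then sprayed post-emergence at 1000 or 250 g/ha from acetone/water (50:50) with 0.5% Tween 20. Damage was scored visually after 13 days (0 = none, 100 = total).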

[8] = tested on: Amaranthus retoflexus (AMARE); experiment: as above; details: Amaranthus retroflexus, 312 h
Procedure, shortened: as §2

[9] = tested on: Echinochloa crus-galli (ECHCG); experiment: as above; details: 312 h
Procedure, shortened: as §2

[10] = tested on: Ipomea hederaceae (IPOHE); experiment: as above; details: Ipomoea hederacea, 312 h
Procedure, shortened: as §2

[11] = tested on: Setaria faberi (SETFA); experiment: as above; details: 312 h
Procedure, shortened: as §2

[12] = tested on: Solanum nigrum (SOLNI); experiment: as above; details: 312 h
Procedure, shortened: as §2

[13] = pre-emergence, 1,000 g/ha, evaluated after 13 days (100=total damage; 0=no damage), read-out: Percentage damage ALOMY
[14] = pre-emergence, 1,000 g/ha, evaluated after 13 days (100=total damage; 0=no damage), read-out: Percentage damage AMARE
[15] = pre-emergence, 1,000 g/ha, evaluated after 13 days (100=total damage; 0=no damage), read-out: Percentage damage ECHCG
[16] = pre-emergence, 1,000 g/ha, evaluated after 13 days (100=total damage; 0=no damage), read-out: Percentage damage IPOHE
[17] = pre-emergence, 1,000 g/ha, evaluated after 13 days (100=total damage; 0=no damage), read-out: Percentage damage SETFA
[18] = pre-emergence, 1,000 g/ha, evaluated after 13 days (100=total damage; 0=no damage), read-out: Percentage damage SOLNI
[19] = post-emergence, 1,000 g/ha, evaluated after 13 days (100=total damage; 0=no damage), read-out: Percentage damage caused to weed species, ALOMY
[20] = post-emergence, 1,000 g/ha, evaluated after 13 days (100=total damage; 0=no damage), read-out: Percentage damage caused to weed species, AMARE
[21] = post-emergence, 1,000 g/ha, evaluated after 13 days (100=total damage; 0=no damage), read-out: Percentage damage caused to weed species, ECHCG
[22] = post-emergence, 1,000 g/ha, evaluated after 13 days (100=total damage; 0=no damage), read-out: Percentage damage caused to weed species, IPOHE
[23] = post-emergence, 1,000 g/ha, evaluated after 13 days (100=total damage; 0=no damage), read-out: Percentage damage caused to weed species, SETFA
[24] = post-emergence, 1,000 g/ha, evaluated after 13 days (100=total damage; 0=no damage), read-out: Percentage damage caused to weed species, SOLNI
[25] = pre-emergence, rate 1,000 g/ha, evaluated after 13 days (100=total damage to plant; 0=no damage), read-out: Percentage damage caused to weed species, ALOMY
[26] = pre-emergence, rate 1,000 g/ha, evaluated after 13 days (100=total damage to plant; 0=no damage), read-out: Percentage damage caused to weed species, AMARE
[27] = pre-emergence, rate 1,000 g/ha, evaluated after 13 days (100=total damage to plant; 0=no damage), read-out: Percentage damage caused to weed species, ECHCG
[28] = pre-emergence, rate 1,000 g/ha, evaluated after 13 days (100=total damage to plant; 0=no damage), read-out: Percentage damage caused to weed species, IPOHE
[29] = pre-emergence, rate 1,000 g/ha, evaluated after 13 days (100=total damage to plant; 0=no damage), read-out: Percentage damage caused to weed species, SETFA
[30] = pre-emergence, rate 1,000 g/ha, evaluated after 13 days (100=total damage to plant; 0=no damage), read-out: Percentage damage caused to weed species, SOLNI
[31] = Rate 1,000 g/ha, post-emergence spray, evaluated after 13 days (100=total damage to plant; 0=no damage to plant), read-out: Percentage damage caused to weed species, post-emergence, ALOMY
[32] = Rate 1,000 g/ha, post-emergence spray, evaluated after 13 days (100=total damage to plant; 0=no damage to plant), read-out: Percentage damage caused to weed species, post-emergence, AMARE
[33] = Rate 1,000 g/ha, post-emergence spray, evaluated after 13 days (100=total damage to plant; 0=no damage to plant), read-out: Percentage damage caused to weed species, post-emergence, ECHCG
[34] = Rate 1,000 g/ha, post-emergence spray, evaluated after 13 days (100=total damage to plant; 0=no damage to plant), read-out: Percentage damage caused to weed species, post-emergence, IPOHE
[35] = Rate 1,000 g/ha, post-emergence spray, evaluated after 13 days (100=total damage to plant; 0=no damage to plant), read-out: Percentage damage caused to weed species, post-emergence, SETFA
[36] = Rate 1,000 g/ha, post-emergence spray, evaluated after 13 days (100=total damage to plant; 0=no damage to plant), read-out: Percentage damage caused to weed species, post-emergence, SOLNI

Row | Structure (SMILES) | pest or weed control at 1000 g/ha [1, 13] [%] | pest or weed control at 1000 g/ha [2, 14] [%] | pest or weed control at 1000 g/ha [3, 15] [%] | pest or weed control at 1000 g/ha [4, 16] [%] | pest or weed control at 1000 g/ha [5, 17] [%] | pest or weed control at 1000 g/ha [6, 18] [%] | pest or weed control at 1000 g/ha [7, 19] [%] | pest or weed control at 1000 g/ha [8, 20] [%] | pest or weed control at 1000 g/ha [9, 21] [%] | pest or weed control at 1000 g/ha [10, 22] [%] | pest or weed control at 1000 g/ha [11, 23] [%] | pest or weed control at 1000 g/ha [12, 24] [%] | also measured
1 | COC(=O)c1nc(C2CC2)nc(NCC2(OC)C=CC(OC)O2)c1Cl (stereo not drawn) [Compound 4-55, 5-Chloro-2-cyclopropyl-4-[(2,5-dihydro-2,5-dimethoxy-furan-2-yl)methylamino]-6-methoxycarbonyl-pyrimidine] | 0 | 100 | 0 | 60 | 0 | 10 | 10 | 100 | 0 | 50 | 30 | 80 | 
2 | COC(=O)c1nc(C2CC2)nc(NCc2c(C)cc(Cl)cc2Cl)c1Cl [Compound 4-121, 5-Chloro-2-cyclopropyl-4-(2,4-dichloro-6-methylphenylmethyl-amino)-6-methoxy-carbonylpyrimidine] | 0 | 20 | 0 | 20 | 0 | 0 | 20 | 100 | 60 | 100 | 70 | 90 | 
3 | Cc1cccnc1CNc1nc(C2CC2)nc(C(=O)O)c1Cl [Compound 1-153, 5-Chloro-2-cyclopropyl-4-(3-methylpyridin-2-ylmethylamino)-pyrimidine-6-carboxylic acid] | 40 | 100 | 50 | 100 | 70 | 90 | 50 | 100 | 60 | 70 | 90 | 90 | 
4 | COC(=O)c1nc(C2CC2)nc(NC(CO)C2CCOCC2)c1Cl (stereo not drawn) [Compound 4-202, 5-Chloro-2-cyclopropyl-4-(2-hydroxy-1-tetrahydropyran-4-yl-ethylamino)-6-methoxycarbonyl-pyrimidine] | 20 | 60 | 30 | 100 | 30 | 70 | 10 | 100 | 0 | 50 | 30 | 80 | 
5 | COC(=O)c1nc(C2CC2)nc(N[C@H]2CCCC[C@@H]2O)c1Cl (relative stereo) [4-36 (trans), 5-Chloro-2-cyclopropyl-4-(trans-2-hydroxycyclohexyl-amino)-6-methoxy-carbonylpyrimidine] | 10 | 80 | 20 | 60 | 20 | 70 | 20 | 80 | 10 | 40 | 20 | 70 | 
6 | COC(=O)c1nc(C2CC2)nc(NCc2ccccc2[N+](=O)[O-])c1Cl [Compound 4-90, 5-Chloro-2-cyclopropyl-6-methoxycarbonyl-4-(2-nitrophenyl-methylamino)-pyrimidine] | 50 | 100 | 60 | 100 | 80 | 100 | 50 | 100 | 80 | 100 | 100 | 100 | 
7 | COC(=O)c1nc(-c2ccc(OC(F)(F)F)cc2)nc(NCc2ccco2)c1Cl [Compound 248-48, 5-Chloro-4-(furan-2-ylmethylamino)-6-methoxycarbonyl-2-(4-trifluoromethoxy-phenyl)pyrimidine] |  |  |  |  |  |  |  |  |  |  |  |  | pest or weed control at 1000 g/ha [1, 25]: 0%; pest or weed control at 1000 g/ha [2, 26]: 60%; pest or weed control at 1000 g/ha [3, 27]: 0%; pest or weed control at 1000 g/ha [4, 28]: 0%; pest or weed control at 1000 g/ha [5, 29]: 0%; pest or weed control at 1000 g/ha [6, 30]: 20%; pest or weed control at 1000 g/ha [7, 31]: 0%; pest or weed control at 1000 g/ha [8, 32]: 70%; pest or weed control at 1000 g/ha [9, 33]: 40%; pest or weed control at 1000 g/ha [10, 34]: 50%; pest or weed control at 1000 g/ha [11, 35]: 0%; pest or weed control at 1000 g/ha [12, 36]: 70%
8 | COC(=O)c1nc(-c2ccc(F)c(F)c2F)nc(NCc2ccco2)c1Cl [Compound 247-48, 5-Chloro-4-(furan-2-ylmethylamino)-6-methoxycarbonyl-2-(2,3,4-trifluoro-phenyl)pyrimidine] |  |  |  |  |  |  |  |  |  |  |  |  | pest or weed control at 1000 g/ha [1, 25]: 10%; pest or weed control at 1000 g/ha [2, 26]: 90%; pest or weed control at 1000 g/ha [3, 27]: 10%; pest or weed control at 1000 g/ha [4, 28]: 40%; pest or weed control at 1000 g/ha [5, 29]: 20%; pest or weed control at 1000 g/ha [6, 30]: 40%; pest or weed control at 1000 g/ha [7, 31]: 30%; pest or weed control at 1000 g/ha [8, 32]: 100%; pest or weed control at 1000 g/ha [9, 33]: 60%; pest or weed control at 1000 g/ha [10, 34]: 60%; pest or weed control at 1000 g/ha [11, 35]: 40%; pest or weed control at 1000 g/ha [12, 36]: 90%
9 | COC(=O)c1nc(C2CC2)nc(NCCc2ccccn2)c1Cl [Compound 4-228, 5-Chloro-2-cyclopropyl-6-methoxycarbonyl-4-[2-(pyrid-2-yl)ethylamino]-pyrimidine] | 0 | 70 | 0 | 40 | 0 | 40 | 10 | 90 | 40 | 70 | 50 | 80 | 
